The source of these data is the NIST ThermoML archive (doi:10.1016/j.jct.2013.12.016).

The conditions of series [1]: DTA.
Series [2] can be described thus: Molar enthalpy of transition or fusion. As to conditions: DSC.

± gives the expanded uncertainty stated by the source.

Turning to `CC[C@H](C)[C@H](NC(C)=O)C(=O)NC` (racemic) [N-acetyl-N'-methyl-DL-isoleucinamide], the Triple point temperature in series [1] (Crystal) is listed as 482.02 ± 0.39 K. Further, the “Molar enthalpy of transition or fusion” value in series [2] (Crystal) came out at 6.48 ± 0.143 kcal/mol.

Consider `CCCC(NC(C)=O)C(=O)NC` (racemic) [N-acetyl-N'-methyl-DL-norvalinamide], for which, in series [1] (Crystal), the Triple point temperature stood at 432.29 ± 0.39 K. Besides, the “Molar enthalpy of transition or fusion” value in series [2] (Crystal) was 6.27 ± 0.143 kcal/mol.

As for `CNC(=O)C1CCCN1C(C)=O` (stereo unspecified) [1-acetyl-N-methylprolinamide], the Triple point temperature in series [1] (Crystal) came out at 378.12 ± 0.39 K. In addition, the “Molar enthalpy of transition or fusion” value in series [2] (Crystal) was 6.23 ± 0.139 kcal/mol.

Take `CNC(=O)CNC(C)=O` [2-acetamido-N-methylacetamide]: the Triple point temperature in series [1] (Crystal) was found to be 430.73 ± 0.39 K. For the same compound, in series [2] (Crystal), the “Molar enthalpy of transition or fusion” value stood at 5.65 ± 0.129 kcal/mol.

On to `CCC(NC(C)=O)C(=O)NC` (stereo unspecified) [2-acetamido-N-methylbutanamide], for which the Triple point temperature in series [1] (Crystal) was 434.83 ± 0.4 K. The “Molar enthalpy of transition or fusion” value in series [2] (Crystal) amounted to 5.91 ± 0.134 kcal/mol.

Consider `CCCCC(NC(C)=O)C(=O)NC` (stereo unspecified) [2-acetamido-N-methylhexanamide], for which the Triple point temperature in series [1] (Crystal) stood at 444 ± 0.39 K. For the same compound, in series [2] (Crystal), the “Molar enthalpy of transition or fusion” value was 8.21 ± 0.177 kcal/mol.

`CNC(=O)C(C)NC(C)=O` (stereo unspecified) [2-acetamido-N-methylpropanamide]: the Triple point temperature in series [1] (Crystal 1) came to 411.9 ± 2 K; in series [1] (Crystal 2), 368.43 ± 0.39 K. The “Molar enthalpy of transition or fusion” value in series [2] (Crystal 1) came to 3.8 ± 0.115 kcal/mol; in series [2] (Crystal 2), 1.84 ± 0.0765 kcal/mol.

Regarding `CNC(=O)[C@@H]1CCCN1C(C)=O` [(2S)-1-acetyl-N-methyl-2-pyrrolidinecarboxamide], the Triple point temperature in series [1] (Crystal) amounted to 375.85 ± 0.39 K. In addition, the “Molar enthalpy of transition or fusion” value in series [2] (Crystal) was 5.96 ± 0.134 kcal/mol.

For `CC[C@H](C)[C@H](NC(C)=O)C(=O)NC` [(2S,3S)-2-acetamido-N,3-dimethylpentanamide], in series [1] (Crystal), the Triple point temperature was 525.72 ± 0.39 K. Moreover, in series [2] (Crystal), the “Molar enthalpy of transition or fusion” value was determined as 9.11 ± 0.21 kcal/mol.

For the compound `CNC(=O)[C@H](CC(C)C)NC(C)=O` [(S)-2-acetamido-N,4-dimethylpentanamide], the Triple point temperature in series [1] (Crystal) was determined as 438.2 ± 0.39 K. For the same compound, the “Molar enthalpy of transition or fusion” value in series [2] (Crystal) amounted to 5.54 ± 0.127 kcal/mol.

As to `CNC(=O)[C@H](C)NC(C)=O` [(S)-2-acetamido-N-methylpropanamide], the Triple point temperature is reported as 454.8 ± 0.39 K in series [1] (Crystal 1) and 395.07 ± 0.41 K in series [1] (Crystal 2). Besides, the “Molar enthalpy of transition or fusion” value was found to be 5.94 ± 0.134 kcal/mol in series [2] (Crystal 1) and 1.34 ± 0.0454 kcal/mol in series [2] (Crystal 2).
